Patent US11396495B2, “Amine compound for inhibiting SSAO/VAP-1 and use thereof” (SUNSHINE LAKE PHARMA CO., LTD., priority 2017, dated 2022)
Structures can show the parent of a compound that is named as a salt.

Assays:
[1] = molecular target: rat adipose tissue homogenate SSAO/VAP-1 (Rattus norvegicus (Rat), UniProt O08590); assay: Determination of inhibitory activity of rat adipose tissue homogenate SSAO/VAP-1; format: biochemical, Sprague Dawley rats; settings: rat abdominal adipose tissue homogenate, pargyline pretreated, 37° C.
Chain of rat adipose tissue homogenate SSAO/VAP-1 (O08590 whole entry): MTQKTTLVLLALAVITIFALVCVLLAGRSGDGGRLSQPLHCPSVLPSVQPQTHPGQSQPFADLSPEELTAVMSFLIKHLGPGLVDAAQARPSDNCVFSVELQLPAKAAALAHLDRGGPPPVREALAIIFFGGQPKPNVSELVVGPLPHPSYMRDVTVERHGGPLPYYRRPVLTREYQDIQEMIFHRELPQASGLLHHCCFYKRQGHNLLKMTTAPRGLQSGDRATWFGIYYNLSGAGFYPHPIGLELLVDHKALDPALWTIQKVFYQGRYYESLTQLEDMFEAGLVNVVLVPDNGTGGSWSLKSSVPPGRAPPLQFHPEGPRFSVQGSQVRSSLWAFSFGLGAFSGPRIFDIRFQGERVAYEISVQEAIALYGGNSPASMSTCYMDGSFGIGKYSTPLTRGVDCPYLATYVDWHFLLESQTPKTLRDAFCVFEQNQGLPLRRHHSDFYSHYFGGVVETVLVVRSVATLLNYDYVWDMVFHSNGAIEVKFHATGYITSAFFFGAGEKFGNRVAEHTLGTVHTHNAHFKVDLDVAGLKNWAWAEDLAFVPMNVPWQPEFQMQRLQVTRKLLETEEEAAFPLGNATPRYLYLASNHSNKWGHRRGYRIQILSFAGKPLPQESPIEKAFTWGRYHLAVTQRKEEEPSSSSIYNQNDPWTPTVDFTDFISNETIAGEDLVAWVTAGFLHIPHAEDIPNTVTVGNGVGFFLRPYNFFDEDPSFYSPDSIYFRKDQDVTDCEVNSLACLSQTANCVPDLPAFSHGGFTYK
Procedure: 2. Determination of Inhibitory Activity of Rat Adipose Tissue Homogenate SSAO/VAP-1
Test purpose: The following methods can be used to determine the inhibitory activity of the compounds of the invention for rat adipose tissue homogenate SSAO/VAP-1.
The abdominal fat removed from Sprague Dawley rats was a tissue rich in SSAO/VAP-1. 5 mL Of HES buffer per gram of rat abdominal adipose tissue (20 mM Sodium N-piperazine-N-ethanesulfonate, 1 mm EDTA, 250 mM sucrose, 1×PMSF and 100 mM (3-glycerol phosphate disodium salt hydrate, pH 7.4) was added for homogenizing. The fat tissue was homogenized for 3 min by using Bertin precellys 24 multi-functional sample homogenizer of Bertin technologies, and the fat tissue homogenate was centrifuged for 10 min at 4° C. and 20000 g, and the middle transparent supernatant was taken. The supernatant was incubated with 0.5 mm Pargyline hydrochloride dissolved in HES buffer at 37° C. for 30 min. After 30 min incubation, 25 μl of fat tissue supernatant was added to the standard 96 well plate. The test compound was dissolved in DMSO and diluted to 6 concentrations. 25 μL Of the test compounds with different concentrations was added to each well containing the supernatant of fat tissue and incubated at 37° C. for 30 min. After incubation, 50 μL of the reaction mixture containing 80 μM benzylamine hydrochloride (containing 100 μM Amplex® red and 0.2 U/mL HRP, Amplex® Red Hydrogen peroxideperoxidase assay kit) was added to the corresponding wells and incubated at 37° C. for 30 min. After 30 min, the relative fluorescence unit (RFU) was read by using PHERAstar FSX enzyme marker of BMG LABTECH at 540 nm excitation and 580 nm emission. The curve was drawn by using the graph pad prism 5 software, and the IC50 value was calculated. The results were shown in table 2, wherein the compound listed in table 2 is the compound in the preparation examples with the same compound number: Table 2: inhibitory activity of the compound of examples of the invention for SSAO/VAP-1 of fat tissue homogenate

[2] = molecular target: Human recombinant SSAO/VAP-1 (Homo sapiens (Human), UniProt Q16853); assay: Determination of inhibitory activity of human recombinant SSAO/VAP-1 (Amplex Red, benzylamine); format: biochemical; settings: human recombinant SSAO/VAP-1, 30 min preincubation at room temperature; read-out: SSAO/VAP-1(Human recombinant protein) IC50/nM
Chain of Human recombinant SSAO/VAP-1 (Q16853 whole entry): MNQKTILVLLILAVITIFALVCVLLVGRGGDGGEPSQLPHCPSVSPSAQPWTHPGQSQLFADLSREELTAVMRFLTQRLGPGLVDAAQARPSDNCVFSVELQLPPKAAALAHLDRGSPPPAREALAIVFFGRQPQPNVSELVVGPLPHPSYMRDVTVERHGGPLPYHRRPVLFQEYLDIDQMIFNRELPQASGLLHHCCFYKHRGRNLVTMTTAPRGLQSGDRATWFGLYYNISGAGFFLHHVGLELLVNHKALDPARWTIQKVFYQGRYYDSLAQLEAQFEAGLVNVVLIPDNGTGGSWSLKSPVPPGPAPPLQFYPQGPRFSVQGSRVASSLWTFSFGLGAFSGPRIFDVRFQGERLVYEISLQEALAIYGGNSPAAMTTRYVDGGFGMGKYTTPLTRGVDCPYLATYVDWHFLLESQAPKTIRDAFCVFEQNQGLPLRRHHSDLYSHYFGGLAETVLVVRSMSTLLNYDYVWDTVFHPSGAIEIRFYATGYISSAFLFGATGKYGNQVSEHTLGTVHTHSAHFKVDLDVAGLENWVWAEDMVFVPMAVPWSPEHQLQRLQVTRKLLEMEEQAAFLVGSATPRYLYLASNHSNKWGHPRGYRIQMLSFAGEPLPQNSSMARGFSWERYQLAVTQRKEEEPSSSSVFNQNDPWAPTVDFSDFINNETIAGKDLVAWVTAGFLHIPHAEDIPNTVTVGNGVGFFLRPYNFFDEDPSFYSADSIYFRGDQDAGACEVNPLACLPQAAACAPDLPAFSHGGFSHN
Procedure: 1. Determination of Inhibitory Activity of Human Recombinant SSAO/VAP-1
Test purpose: The following methods can be used to determine the inhibitory activity of the compounds described in the examples of the invention for human recombinant SSAO/VAP-1.
Human recombinant SSAO/VAP-1 (VAP-1, human) purchased from Sigma, Cat. No. SRP6241;
The test compound was dissolved in DMSO and diluted to 10 concentrations in 4-fold serial dilution. In 384 well plates, 25 μL of human recombinant SSAO/VAP-1 (1.6 μg/ml) was added to each well. 100 nL of test compounds with different concentrations were added to each well containing human recombinant SSAO/VAP-1 and incubated at room temperature for 30 min. After 30 min incubation, 25 μl of Amplex® red monoamine oxidase assay kit (containing a reaction mixture of 200 μm Amplex Red reagent, 1 U/ml HRP and 1 mm benzylamine hydrochloride) was added to the corresponding well, and incubated at room temperature and dark for 60 min. After 60 min, the relative fluorescence unit (RFU) was read by using PerkinElmer's Envision at 530-560 nm excitation and 590 nm emission. The curve was drawn by using the graph pad prism 5 software, and the IC50 value was calculated. The results were shown in table 1, wherein the compound listed in table 1 is the compound in the preparation examples with the same compound number: […]

SMILES: CCOC(=O)CN1CCc2cc(OC/C(=C\F)CN)ccc2C1=O [Compound 13, ethyl 2-[6-[(Z)-2-(aminomethyl)-3-fluoro-allyloxy]-1-oxo-3,4-dihydroisoquinolin-2-yl]acetate hydrochloride]
- IC50 [1]: 8.03 nM
- IC50 [2]: 0.11 nM

SMILES: COC(=O)CN1CCc2cc(OC/C(=C/F)CN)ccc2C1=O [Compound 58, methyl 2-[6-[(E)-2-(aminomethyl)-3-fluoro-allyloxy]-1-oxo-3,4-dihydroisoquinolin-2-yl]acetate hydrochloride]
- IC50 [2]: 1.17 nM

SMILES: NC/C(=C/F)COc1ccc2c(c1)CCN(CCOCc1ccccc1)C2=O [Compound 21, 6-[(Z)-2-(aminomethyl)-3-fluoro-allyloxy]-2-(2-benzyloxyethyl)-3,4-dihydro isoquinolin-1-one hydrochloride]
- IC50 [2]: 0.91 nM

SMILES: COC(=O)CCN1CCc2cc(OC/C(=C/F)CN)ccc2C1=O [Compound 56, methyl 3-[6-[(E)-2-(aminomethyl)-3-fluoro-allyloxy]-1-oxo-3,4-dihydroisoquinolin-2-yl]propionate hydrochloride]
- IC50 [2]: 1.91 nM

SMILES: NC/C(=C/F)COc1ccc2c(c1)CCN(CC1CCOCC1)C2=O [Compound 11, 6-[(Z)-2-(aminomethyl)-3-fluoro-allyloxy]-2-(tetrahydropyranyl-4-methylene)-3,4-dihydroisoquinolin-1-one hydrochloride]
- IC50 [1]: 11.7 nM
- IC50 [2]: 0.82 nM

SMILES: COCCN1CCc2cc(OC/C(=C\F)CN)ccc2C1=O [Compound 19, 6-[(Z)-2-(aminomethyl)-3-fluoro-allyloxy]-2-(2-methoxyethyl)-3,4-dihydro isoquinolin-1-one hydrochloride]
- IC50 [1]: 5.7 nM
- IC50 [2]: 1 nM

SMILES: NC/C(=C/F)COc1ccc2c(c1)CCN(c1nccs1)C2=O [Compound 41, 6-[(Z)-2-(aminomethyl)-3-fluoro-allyloxy]-2-thiazol-2-yl-3,4-dihydroisoquinolin-1-one hydrochloride]
- IC50 [2]: 0.63 nM

SMILES: CN1CCc2cc(OC/C(=C\F)CN)ccc2C1=O [Compound 9, 6-[(Z)-2-(aminomethyl)-3-fluoro-allyloxy]-2-methyl-3,4-dihydroisoquinolin-1-one hydrochloride]
- IC50 [1]: 8.05 nM
- IC50 [2]: 0.61 nM

SMILES: COC(=O)CCN1CCc2cc(OC/C(=C\F)CN)ccc2C1=O [Compound 57, methyl 3-[6-[(Z)-2-(aminomethyl)-3-fluoro-allyloxy]-1-oxo-3,4-dihydroisoquinolin-2-yl]propionate hydrochloride]
- IC50 [2]: 1.27 nM

SMILES: NC/C(=C/F)COc1ccc2c(c1)NC(=O)CC2 [Compound 2, 7-[(Z)-2-(aminomethyl)-3-fluoro-allyloxy]-3,4-dihydro-1H-quinolin-2-one hydrochloride]
- IC50 [1]: 11.6 nM
- IC50 [2]: 1.01 nM

SMILES: NC/C(=C/F)COc1ccc2c(c1)CCN(c1ccccc1F)C2=O [Compound 35, 6-[(Z)-2-(aminomethyl)-3-fluoro-allyloxy]-2-(2-fluorophenyl)-3,4-dihydroisoquinolin-1-one hydrochloride]
- IC50 [2]: 0.71 nM

SMILES: NC/C(=C\F)COc1ccc2c(c1)CCN(c1ccccc1F)C2=O [Compound 34, 6-[(E)-2-(aminomethyl)-3-fluoro-allyloxy]-2-(2-fluorophenyl)-3,4-dihydroisoquinolin-1-one hydrochloride]
- IC50 [2]: 1.16 nM

SMILES: N#Cc1ccc(N2CCc3cc(OC/C(=C\F)CN)ccc3C2=O)cc1 [Compound 39, 4-[6-[(Z)-2-(aminomethyl)-3-fluoro-allyloxy]-1-oxo-3,4-dihydroisoquinolin-2-yl]benzonitrile hydrochloride]
- IC50 [2]: 0.53 nM

SMILES: NC/C(=C/F)COc1ccc2c(c1)CCN(Cc1ccon1)C2=O [Compound 43, 6-[(Z)-2-(aminomethyl)-3-fluoro-allyloxy]-2-(isoxazol-3-yl-methyl)-3,4-dihydroisoquinolin-1-one hydrochloride]
- IC50 [2]: 0.71 nM

SMILES: NC/C(=C\F)COc1ccc2c(c1)CCN(c1ncccn1)C2=O [Compound 7, 6-[(E)-2-(aminomethyl)-3-fluoro-allyloxy]-2-(pyrimidin-2-yl)-3,4-dihydroisoquinolin-1-one hydrochloride]
- IC50 [1]: 8.98 nM
- IC50 [2]: 0.09 nM

SMILES: COCCN1CCc2cc(OC/C(=C/F)CN)ccc2C1=O [Compound 18, 6-[(E)-2-(aminomethyl)-3-fluoro-allyloxy]-2-(2-methoxyethyl)-3,4-dihydroisoquinolin-1-one hydrochloride]
- IC50 [1]: 6.13 nM
- IC50 [2]: 0.48 nM

SMILES: NC/C(=C\F)COc1ccc2c(c1)CCNS2(=O)=O [Compound 32, (E)-2-[(1,1-dioxo-3,4-dihydro-2H-benzo[e][1,2]thiazin-6-yl)oxymethyl]-3-fluoro-prop-2-enyl-1-amine hydrochloride]
- IC50 [1]: 6.22 nM

SMILES: NC/C(=C/F)COc1ccc2c(c1)CCN(c1ccccc1)C2=O [Compound 6, 6-[(Z)-2-(aminomethyl)-3-fluoro-allyloxy]-2-phenyl-3,4-dihydroisoquinolin-1-one hydrochloride]
- IC50 [2]: 0.04 nM

SMILES: COc1ncc(N2CCc3cc(OC/C(=C\F)CN)ccc3C2=O)cn1 [Compound 55, 6-[(Z)-2-[(aminomethyl)-3-fluoro-allyloxy]-2-(2-methoxypyrimidin-5-yl)-3,4-dihydroisoquinolin-1-one hydrochloride]
- IC50 [2]: 0.82 nM

SMILES: NC/C(=C\F)COc1ccc2c(c1)CCN(c1nccs1)C2=O [Compound 40, 6-[(E)-2-(aminomethyl)-3-fluoro-allyloxy]-2-thiazol-2-yl-3,4-dihydroisoquinolin-1-one hydrochloride]
- IC50 [2]: 1 nM

SMILES: N#Cc1ccc(N2CCc3cc(OC/C(=C/F)CN)ccc3C2=O)cc1 [Compound 38, 4-[6-[(E)-2-(aminomethyl)-3-fluoro-allyloxy]-1-oxo-3,4-dihydroisoquinolin-2-yl]benzonitrile hydrochloride]
- IC50 [2]: 0.68 nM

SMILES: NC/C(=C\F)COc1ccc2c(c1)NC(=O)CC2 [Compound 1, 7-[(E)-2-(aminomethyl)-3-fluoro-allyloxy]-3,4-dihydro-1H-quinolin-2-one hydrochloride]
- IC50 [1]: 10.1 nM

SMILES: NC/C(=C/F)COc1ccc2c(c1)CCN(c1ccccc1)C2 [Compound 53, (Z)-3-fluoro-2-[(2-phenyl-3,4-dihydro-1H-isoquinolin-6-yl)oxymethyl]prop-2-enyl-1-amine hydrochloride]
- IC50 [2]: 1.04 nM

SMILES: NC/C(=C\F)COc1ccc2c(c1)CCN(Cc1ccon1)C2=O [Compound 42, 6-[(E)-2-(aminomethyl)-3-fluoro-allyloxy]-2-(isoxazol-3-yl-methyl)-3,4-dihydroisoquinolin-1-one hydrochloride]
- IC50 [2]: 1.13 nM

SMILES: NC/C(=C\F)COc1ccc2c(c1)CCN(CC1CCOCC1)C2=O [Compound 10, 6-[(E)-2-(aminomethyl)-3-fluoro-allyloxy]-2-(tetrahydropyranyl-4-methylene)-3,4-dihydroisoquinolin-1-one hydrochloride]
- IC50 [1]: 9.54 nM

SMILES: NC/C(=C\F)COc1ccc2c(c1)CCN(c1ccccn1)C2=O [Compound 28, 6-[(E)-2-(aminomethyl)-3-fluoro-allyloxy]-2-(2-pyridyl)-3,4-dihydroisoquinolin-1-one hydrochloride]
- IC50 [2]: 1.53 nM

SMILES: COC(=O)CN1CCc2cc(OC/C(=C\F)CN)ccc2C1=O [Compound 59, methyl 2-[6-[(Z)-2-(aminomethyl)-3-fluoro-allyloxy]-1-oxo-3,4-dihydroisoquinolin-2-yl]acetate hydrochloride]
- IC50 [2]: 1.3 nM
